Each compound was assayed on summer wheat of the cultivar 'Triso' (assay: Plant growth regulation test: culm stabilization of crop plants). Settings: application rate of 30 to 300 g of active substance per hectare, treated at stage BBCH 31, culm length measured after ears had formed.
Format: in vivo
Summary of the method: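 Wettable-powder formulation with adjuvant (1 l/ha) sprayed at 300 l water/ha onto pot-grown plants at BBCH 31, then kept outdoors. After ear formation culm length was measured; culm stabilization is expressed as percent of untreated control.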

Row | Compound | longitudinal growth (culm length) of summer wheat
1 | COC(=O)Cc1c(C)nn(-c2ccc(OC)nc2)c1-c1ccccc1 [Example 2-5] | effectively shortened
2 | COC(=O)C(C)c1c(C)nn(-c2cnccc2C)c1-c1ccccc1 (stereo not shown) [Example 2-6] | effectively shortened
3 | Cc1ccc(-n2nc(C)c(CC(=O)O)c2-c2ccccc2)c(C)n1 [Example 1-11] | effectively shortened
4 | Cc1ccncc1-n1nc(C)c(CC(=O)O)c1-c1cccs1 [Example 1-52] | effectively shortened
5 | C=C(Cl)COC(=O)Cc1c(C)nn(-c2cccnc2)c1-c1ccccc1 [Example 3-184] | effectively shortened
6 | COC(=O)Cc1c(C)nn(-c2cccnc2)c1-c1cc(C)cc(C)c1 [Example 2-43] | effectively shortened
7 | Cc1ccncc1-n1nc(C)c(CC(=O)O)c1-c1sccc1C [Example 1-53] | effectively shortened
8 | COc1ccc(-n2nc(C)c(CC(=O)O)c2-c2ccccc2)cn1 [Example 1-5] | effectively shortened
9 | Cc1ccncc1-n1nc(C)c(CC(=O)O)c1-c1ccc(C(F)(F)F)cc1 [Example 1-24] | effectively shortened
10 | C=C(Cl)COC(=O)Cc1c(C)nn(-c2cccnc2)c1-c1sccc1C [Example 3-188] | effectively shortened
11 | Cc1cc(C)cc(-c2c(CC(=O)O)c(C)nn2-c2cccnc2)c1 [Example 1-43] | effectively shortened
12 | Cc1cncc(-n2nc(C)c(CC(=O)O)c2-c2ccccc2)c1 [Example 1-50] | effectively shortened
13 | COC(=O)Cc1c(C)nn(-c2cccnc2)c1-c1ccc(OC)nc1 [Example 2-62] | effectively shortened
14 | Cc1nn(-c2cccnc2)c(-c2ccccn2)c1CC(=O)OCC1CCCO1 (stereo not shown) [Example 3-230] | effectively shortened
15 | COC(=O)Cc1c(C)nn(-c2cnccc2C)c1-c1cc(C)cs1 [Example 2-54] | effectively shortened
16 | Cc1nn(-c2cccnc2)c(-c2ccccc2)c1CC(=O)OCC#Cc1ccccc1 [Example 3-164] | effectively shortened
17 | COC(=O)Cc1c(C)nn(-c2cnccc2C(F)(F)F)c1-c1ccccc1 [Example 2-8] | effectively shortened
18 | Cc1ccncc1-n1nc(C)c(CC(=O)O)c1-c1ccc(Cl)c(C(F)(F)F)c1 [Example 1-48] | effectively shortened
19 | COC(=O)Cc1cnn(-c2cnccc2C)c1-c1ccc(Cl)cc1 [Example 2-133] | effectively shortened
20 | CC#CCOC(=O)Cc1c(C)nn(-c2cnccc2C)c1-c1ccccc1 [Example 3-139] | effectively shortened
21 | COC(=O)Cc1c(C)nn(-c2cnccc2C)c1-c1ccc(C(C)(C)C)cc1 [Example 2-32] | effectively shortened
22 | CCCc1nn(-c2cnccc2C)c(-c2ccc(Cl)cc2)c1CC(=O)OC [Example 2-124] | effectively shortened
23 | COC(=O)Cc1c(C)nn(-c2cnccc2C)c1-c1cccc(Cl)c1Cl [Example 2-131] | effectively shortened
24 | Cc1nn(-c2cnccc2[S+](C)[O-])c(-c2ccccc2)c1CC(=O)O (stereo not shown) [Example 1-71] | effectively shortened
25 | Cc1ccnc(-c2c(CC(=O)O)c(C)nn2-c2cnccc2C)c1 [Example 1-137] | effectively shortened

From patent US8252723B2, “Substituted 1-(3-pyridinyl)pyrazol-4-ylacetic acids, processes for their preparation and their use as herbicides and plant growth regulators” (Bayer CropScience AG, priority 2006, dated 2012)
